{"source": "patent US20240366543A1", "about": "“METHODS OF TREATING METHYLMALONIC ACIDEMIA AND PROPIONIC ACIDEMIA” (HemoShear Therapeutics, Inc., priority 2021, published 2024)", "key": {"[1]": {"experiment": "Phase 2 study preliminary plasma pharmacokinetics in PA/MMA subjects", "type": "in vivo, human", "details": "for C24 / concentration at 24 h: 24 hours post-dose; for C24: C24projected: ratio observed to projected; for AUC(0-t): read-out: AUC0-24 h; for concentration at 24 h: read-out: C24", "method": "Part A is the dose escalation phase to assess the initial safety and to confirm the pharmacologic activity of Compound 5 in subjects with PA and MMA. Screening for eligibility took place within 28 days of enrollment. All subjects were initially evaluated during a 4-week run-in period followed by within-subject dose escalation of 3 doses (1, 3, and 10 mg/kg QD of sodium 2,2-dimethylbutanoate); dose escalation interval of 4 weeks) to check for improvement in disease-related biomarkers.\nPlasma will be analyzed by liquid chromatography with tandem mass spectrometry (LC-MS/MS) with a lower limit of quantitation of 0.100 μg/mL. Samples collected for analyses of Compound 5 (plasma/serum/whole blood)] concentration may also be used to evaluate safety or efficacy aspects related to concerns arising during or after the study.\nPreliminary pharmacokinetics (PK) data from the first two subjects of Study described in Examples 7-8 was evaluated at 1 mg/kg, 3 mg/kg and 10 mg/kg of Compound 5 dosed once daily (QD)."}, "Normal pHeps": {"tested_on": "Normal pHeps", "experiment": "HemoShear Technology, normal pHeps", "type": "cell-based, human", "details": "exposed 6 days", "excerpt": "For this experiment, we deployed the HemoShear REVEAL-Tx™ technology, which is based on the cone-and-plate configuration or viscometer combined with a porous polycarbonate membrane that mimics a filtering layer of sinusoidal endothelial cells (see: Dash A, Deering TG, Marukian S, et al. Physiological Hemodynamics and Transport Restore Insulin and Glucagon Responses in a Normal Glucose Milieu in Hepatocytes In Vitro. 73rd Scientific Sessions of the American Diabetes Association, 2013 (Chicago), and U.S. Pat. Nos. 7,811,782 and 9,500,642, and 9,617,521, each of which is incorporated by reference herein in its entirety). […]\nIn PA and MMA pHeps, where P-CoA and M-CoA levels are very high, there is a dramatic reduction in P-CoA and M-CoA pools with Compound 5 treatment (Table 2 and Table 3). […] The effect of Compound 5 on levels of acetyl-CoA were measured in PA and MMA pHeps in acute static experiments and in PA, MMA and normal pHeps following chronic exposures in the HemoShear Technology (FIG. 5B; FIG. 6B). […]\nTo further evaluate the hypothesis that Compound 5 drives a redistribution of the acyl-CoA pools resulting in a reduction in P-CoA and M-CoA, the levels of CoASH were measured in the PA and MMA disease models. […]"}, "[2]": {"details": "1 mg/kg QD, single dose, individual subjects 010-1001, 010-1002, preliminary"}, "[3]": {"details": "1 mg/kg QD, steady-state, individual subjects"}, "[4]": {"details": "3 mg/kg QD, steady-state, individual subjects"}, "[5]": {"details": "10 mg/kg QD, steady-state, individual subjects"}, "[6]": {"details": "human, plasma, oral, 1 mg/kg, 1 mg/kg QD, steady-state, individual subjects"}, "[7]": {"details": "human, plasma, oral, 10 mg/kg, 10 mg/kg QD, steady-state, individual subjects"}}, "note": "Where “and” joins values, the source holds several entries; their conditions need not be identical. Identical values can stand only once. Like-named read-outs stand apart in the source and are kept apart here.", "data": [{"smiles": "CCC(C)(C)C(=O)O", "note": "[Compound 5, 2,2-dimethylbutyric acid]", "values": [{"measurement": "AUC0-24 h", "setting": "[1]; [2]", "value": 22800, "unit": "ng·h/mL"}, {"measurement": "Cmax", "setting": "[1]; [2]", "value": 1740, "unit": "ng/mL"}, {"measurement": "C24", "setting": "[1]; [3]", "value": 0.765, "unit": "µg/mL"}, {"measurement": "AUC0-24 h", "setting": "[1]; [3]", "value": 36500, "unit": "ng·h/mL"}, {"measurement": "Cmax", "setting": "[1]; 1 mg/kg QD, steady-state, individual subjects 010-1001, 010-1002", "value": 2930, "unit": "ng/mL"}, {"measurement": "C24: C24projected", "setting": "[1]; [3]", "value": "1.27 and 0.829"}, {"measurement": "C24", "setting": "[1]; [4]", "value": "3.34 µg/mL and 1.01 µg/mL"}, {"measurement": "AUC0-24 h", "setting": "[1]; [4]", "value": 115000, "unit": "ng·h/mL"}, {"measurement": "Cmax", "setting": "[1]; 3 mg/kg QD, steady-state, individual subjects 010-1001, 010-1002", "value": 11400, "unit": "ng/mL"}, {"measurement": "C24: C24projected", "setting": "[1]; [4]", "value": "1.21 and 0.365"}, {"measurement": "C24", "setting": "[1]; [5]", "value": 13.1, "unit": "µg/mL"}, {"measurement": "AUC0-24 h", "setting": "[1]; [5]", "value": 678000, "unit": "ng·h/mL"}, {"measurement": "Cmax", "setting": "[1]; 10 mg/kg QD, steady-state, individual subjects 010-1001, 010-1002", "value": 50600, "unit": "ng/mL"}, {"measurement": "C24: C24projected", "setting": "[1]; [5]", "value": "0.985 and 1.42"}, {"measurement": "AUC(0-t)", "setting": "[1]; human, plasma, oral, 1 mg/kg, 1 mg/kg QD, single dose, individual subjects 010-1001, 010-1002, preliminary", "value": 30800, "unit": "ng·h/mL"}, {"measurement": "Cmax", "setting": "[1]; human, plasma, oral, 1 mg/kg, 1 mg/kg QD, single dose, individual subjects 010-1001, 010-1002, preliminary, read-out: Cmax", "value": 2620, "unit": "ng/mL"}, {"measurement": "concentration at 24 h", "setting": "[1]; [6]", "value": 1170, "unit": "ng/mL"}, {"measurement": "Cmax", "setting": "[1]; human, plasma, oral, 1 mg/kg, 1 mg/kg QD, steady-state, individual subjects 010-1001, 010-1002, read-out: Cmax", "value": 4410, "unit": "ng/mL"}, {"measurement": "AUC(0-t)", "setting": "[1]; [6]", "value": 56500, "unit": "ng·h/mL"}, {"measurement": "Cmax", "setting": "[1]; human, plasma, oral, 3 mg/kg, 3 mg/kg QD, steady-state, individual subjects 010-1001, 010-1002, read-out: Cmax", "value": 15900, "unit": "ng/mL"}, {"measurement": "AUC(0-t)", "setting": "[1]; human, plasma, oral, 3 mg/kg, 3 mg/kg QD, steady-state, individual subjects", "value": 189000, "unit": "ng·h/mL"}, {"measurement": "concentration at 24 h", "setting": "[1]; [7]", "value": 9090, "unit": "ng/mL"}, {"measurement": "Cmax", "setting": "[1]; human, plasma, oral, 10 mg/kg, 10 mg/kg QD, steady-state, individual subjects 010-1001, 010-1002, read-out: Cmax", "value": 50700, "unit": "ng/mL"}, {"measurement": "AUC(0-t)", "setting": "[1]; [7]", "value": 557000, "unit": "ng·h/mL"}, {"measurement": "Percent change at 30 μM, 12C-Acetyl-CoA", "setting": "Normal pHeps", "value": "20 ± 2.9", "unit": "%"}, {"measurement": "Percent change at 30 μM, CoASH", "setting": "Normal pHeps", "value": "−35.2 ± 3", "unit": "%"}]}]}
